The values below come from patent US20050148991A1, “Device for using patient blood as diluent in administering pharmaceuticals” (priority 2002, published 2005).

The data set is described as follows: early study in humans receiving RSR13 via injection in a peripheral vein. The format is in vivo. From the text: Therefore, the use of RSR13 and its physiologically acceptable salts in the present methods is contemplated. The preparation and uses for 2-[4-[2-[(3,5-dimethylphenyl)amino]-2-oxoethyl]phenoxy]-2-methyl-propionic acid and its physiologically acceptable salts has been described previously in U.S. Pat. Nos. 5,049,695; 5,122,539; 5,290,803; 5,432,191; 5,525,630; 5,648,375; 5,661,182; 5,677,330; 5,705,521; 5,872,888; and 5,927,283, and pending U.S. patent application Ser. No. 10/082,130, filed Feb. 25, 2002.

The structures appear in SMILES notation.

Consider `Cc1cc(C)cc(NC(=O)Cc2ccc(OC(C)(C)C(=O)O)cc2)c1` [RSR13, 2-[4-[2-[(3,5-dimethylphenyl)amino]-2-oxoethyl]phenoxy]-2-methyl-propionic acid], for which the pain on injection result was “some recipients complained of pain near the site of injection and downstream”.
